pIC50: −log10 of the molar value. ≈ marks a conversion by molar mass, not a printed value. Read-outs that look alike come from different tables or passages of the source.
Key:
[1] = system: P388 murine leukemia cells; test: MTT cytotoxicity test on P388 murine leukemia cells (Table 1); format: cell-based; conditions: 3 days
Procedure: P388 murine leukemia cells were spread over a 96-well microplate, 2.5×10^3 cells per well. A sample to be tested was added after 24 hours. Cells were cultivated under the conditions of 5% CO2 at 37° C. for 3 days. 3-(4,5-Dimethylthiazol-2-yl)-2,5-diphenyl-2H-tetrazolium bromide (MTT) was added 4 hours after the addition of the sample. Upon the addition of […] of isopropyl alcohol containing 0.04N HCl the absorption at 540 nm was measured to determine IC50.

[2] = clinical tests in the United States; cited from earlier work
[3] = molecular target: T1, topoisomerase I (Mus musculus, UniProt Q04750); test: Topoisomerase I assay, relaxation of supercoiled SV40 DNA; format: biochemical, p388 mouse leukemia
T1 construct: Topoisomerase I was prepared from p388 mouse leukemia; endogenous in cells; host or cells: P388 mouse leukemia
T1 sequence (Q04750 1-767): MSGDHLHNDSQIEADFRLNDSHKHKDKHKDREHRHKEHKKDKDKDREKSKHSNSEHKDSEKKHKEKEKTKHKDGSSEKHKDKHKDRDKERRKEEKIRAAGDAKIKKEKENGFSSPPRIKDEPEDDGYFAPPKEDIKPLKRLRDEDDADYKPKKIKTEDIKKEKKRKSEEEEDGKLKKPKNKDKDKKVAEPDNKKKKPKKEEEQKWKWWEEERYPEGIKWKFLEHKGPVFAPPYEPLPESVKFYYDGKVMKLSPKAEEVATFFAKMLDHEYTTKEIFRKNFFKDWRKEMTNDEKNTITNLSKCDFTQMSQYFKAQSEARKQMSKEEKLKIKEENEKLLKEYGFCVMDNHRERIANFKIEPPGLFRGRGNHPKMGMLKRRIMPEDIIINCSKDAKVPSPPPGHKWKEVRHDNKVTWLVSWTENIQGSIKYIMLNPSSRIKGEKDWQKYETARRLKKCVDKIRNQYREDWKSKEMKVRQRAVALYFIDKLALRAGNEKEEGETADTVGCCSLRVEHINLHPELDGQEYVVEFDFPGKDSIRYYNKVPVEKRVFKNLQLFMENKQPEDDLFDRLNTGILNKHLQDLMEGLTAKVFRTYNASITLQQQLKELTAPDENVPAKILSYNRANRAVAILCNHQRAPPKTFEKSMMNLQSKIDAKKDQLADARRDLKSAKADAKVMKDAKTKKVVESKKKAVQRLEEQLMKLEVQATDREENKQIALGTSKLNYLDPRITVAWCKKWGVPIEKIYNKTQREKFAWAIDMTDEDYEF
Procedure: Topoisomerase I was prepared from p388 mouse leukemia. One unit (the minimum amount of full relaxation of 0.5 μg SV40 DNA) of topoisomerase I,
0.5 μl of the test compounds, and 0.5 μg of SV40 DNA were added sequentially to the reaction buffer. The reaction mixture (50 μl) was incubated for 10 min and 37° C. and analyzed by electrophoresis, the gel was stained with 0.05% ethydium bromide and photographed with UV light. The DNA was quantified using a densitometor. The inhibition rate of the topoisomerase activity was calculated as [formula] where Frt and Frc are ratios of relaxed DNA to total DNA treated with topoisomerase in the presence and absence of the test drug, respectively. Fr is the proportion of relaxed DNA in untreated DNA. The IC50 of each test drug was estimated from the dose-response.

[4] = system: nucleic acid synthesis; conditions: background statement; cited from earlier work
[5] = system: HOC-21 (Ovary); test: In vitro anti-proliferative activity, HOC-21 (Table 2-2); format: cell-based; conditions: Homo sapiens, read-out: in vitro anti-proliferative activity (Gl50)
Procedure: (§1) In vitro anti-proliferative activities of the drugs against 4 human and 1 murine cell lines were measured by the MTT assay (see page 11 of the parent specification) after 3 days incubation, and expressed as the doses required to inhibit growth of 50% cells cultivated (Gl50, ng/ml).

[6] = system: QG56 (human lung cancer cells); test: MTT method, activity on QG56 cells (Table 2-1); format: cell-based; conditions: QG-56, 72 h
Procedure: (§2) See page 11 of the parent specification. In detail, p388 murine leukemia cells, MKN 28 (human stomach cancer cells), QG56 (human lung cancer cells) and HOC21 (human ovarian cancer cells) were provided. The cells were spread over a 96-well microplate, respectively, and a sample to be tested was added to each of them after 24 hours. Cells were cultivated under the conditions of 5% CO2 at 37° C. for 3 days.
(§3) 3-(4,5-Dimethylthiazol-2-yl)-2,5-diphenyl-2H-tetrazolium bromide (abbriviated as MTT) was added thereto 4 hours after the addition of the sample. Upon the addition of […] of isopropyl alcohol containing 0.04N HCl, the absorption at 540 nm was measured To determine IC50.

[7] = system: P388 murine leukemia cells; test: MTT method, activity on p388 cells (Table 2-1); format: cell-based; conditions: Mus musculus
Procedure: as §2, §3

[8] = system: QG90 (Lung); test: In vitro anti-proliferative activity, QG90 (Table 2-2); format: cell-based; conditions: Homo sapiens, QG-90, 72 h, read-out: in vitro anti-proliferative activity (Gl50)
Procedure: as §1

[9] = system: p388 (Mouse leukemia); test: In vitro anti-proliferative activity, p388 (Table 2-2); format: cell-based; conditions: read-out: in vitro anti-proliferative activity (Gl50)
Procedure: as §1

[10] = system: MKN 28 (human stomach cancer cells); test: MTT method, activity on MKN28 cells (Table 2-1); format: cell-based; conditions: MKN-28, 72 h
Procedure: as §2, §3

[11] = Acute toxicity in mice; format: in vivo; conditions: i.v., male BALB/c mice, survival on day 14, Probit method
Procedure: Groups of 5 male BALB/c mice were administered intravenously with several doses of drugs, and their survivals from death were recorded up to day 14. The 10 and 50% lethal doses (LD10 and LD50) were calculated form the survival rate on day 14 by the Probit method.

[12] = system: MKN28 (Stomach); test: In vitro anti-proliferative activity, MKN28 (Table 2-2); format: cell-based; conditions: Homo sapiens, MKN-28, 72 h, read-out: in vitro anti-proliferative activity (Gl50)
Procedure: as §1

[13] = system: MCF-7 (Breast); test: In vitro anti-proliferative activity, MCF-7 (Table 2-2); format: cell-based; conditions: Homo sapiens, MCF7, 72 h, read-out: in vitro anti-proliferative activity (Gl50)
Procedure: as §1

[14] = system: Meth A fibrosarcoma; test: In vivo anti-tumor activity, Meth A fibrosarcoma in BALB/c mice (Table 3); conditions: i.v.; for Death Nos.: qd×4; for Tumor cell anti-proliferative activity: qd×4 (days 5-8), day 14
Procedure: In vivo anti-tumor activities of drugs were assayed with Meth A fibrosarcoma in BALB/c mice. Mice were treated intravenously with several doses of drugs on days 5, 6, 7, and 8 (qd×4) after hypodermic tumor implantation, and the weight of the tumor masses measured on day 14. The anti-tumor activities of drugs against the tumor were expressed as the relative tumor weight of controls (%).

[15] = system: 4 human and 1 murine cell lines; test: In vitro anti-proliferative activity, mean over the cell lines (Table 2-2); format: cell-based; conditions: read-out: in vitro anti-proliferative activity (Gl50), MEAN
Procedure: as §1

[16] = system: HOC21 (human ovarian cancer cells); test: MTT method, activity on HOC21 cells (Table 2-1); format: cell-based; conditions: HOC-21, 72 h
Procedure: as §2, §3

[17] = 72 h, HOC-21 (Ovary), MTT, 3 days incubation
[18] = QG90 (Lung), MTT, 3 days incubation
[19] = 72 h, p388 (Mouse leukemia), MTT, 3 days incubation
[20] = MKN28 (Stomach), MTT, 3 days incubation
[21] = MCF-7 (Breast), MTT, 3 days incubation

## CC[C@@]1(O)C(=O)OCc2c1cc1n(c2=O)Cc2c-1nc1ccc(OC)c3c1c2C(N)CC3.Cl (single isomer, unassigned) [Example 4 (Isomer A)]
[1]; hydrochloride
  IC50: 9.21 ng/mL

## CC[C@@]1(O)C(=O)OCc2c1cc1n(c2=O)Cc2c-1nc1cccc3c1c2C(N)CC3.Cl (single isomer, unassigned) [Example 2 (Isomer B)]
[1]; hydrochloride
  IC50: 12.40 ng/mL

## CC[C@@]1(O)C(=O)OCc2c1cc1n(c2=O)Cc2c-1nc1ccc(OC)c3c1c2C(N)CC3.Cl (single isomer, unassigned) [Example 4 (Isomer B)]
[1]; hydrochloride
  IC50: 27.80 ng/mL

## CC[C@@]1(O)C(=O)OCc2c1cc1n(c2=O)Cc2cc3ccccc3nc2-1 [camptohecin, camptothecin]
[2]
  safety in clinical tests: problem in view of safety
[3]
  pIC50: 4.36
[4]
  antitumor activity: exhibit an antitumor activity

## CC[C@@]1(O)C(=O)OCc2c1cc1n(c2=O)Cc2c-1nc1cc(F)c(C)c3c1c2C(N)CC3.Cl (stereo partly drawn) [DX-8951, (9S)-1-amino-9-ethyl-5-fluoro-2,3-dihydro-9-hydroxy-4-methyl-1H,12H-benzo[de]pyrano[3',4':6,7]indolizino[1,2-b]quinoline-10,13(9H,15H)-dione hydrochloride]
[5]; HOC-21, 72 h
  IC50: 3.67 ng/mL
[6]
  IC50: 0.67 ng/mL
[7]; P388, 72 h
  IC50: 0.58 ng/mL
[8]
  IC50: 0.66 ng/mL
[9]; Mus musculus, P388, 72 h
  IC50: 1.06 ng/mL
[10]
  IC50: 9.4 ng/mL
[3]
  pIC50: 5.95
[11]
  LD10: 228 mg/m^2
  LD50: 270 mg/m^2
[12]
  IC50: 1.75 ng/mL
[13]
  IC50: 0.16 ng/mL
[14]; total dose 1.875 mg/kg
  Death Nos.: 0/6
  Tumor cell anti-proliferative activity: 72.5%
[14]; total dose 3.75 mg/kg
  Death Nos.: 0/6
  Tumor cell anti-proliferative activity: 78.3%
[14]; total dose 7.5 mg/kg
  Death Nos.: 0/6
  Tumor cell anti-proliferative activity: 87.5%
[14]; total dose 15 mg/kg
  Death Nos.: 0/6
  Tumor cell anti-proliferative activity: 96.6%
[14]; total dose 30 mg/kg
  Death Nos.: 2/6
  Tumor cell anti-proliferative activity: 96.4%
[15]
  IC50: 1.46 ng/mL
[16]
  IC50: 12.8 ng/mL

## CCc1c2c(nc3ccc(O)cc13)-c1cc3c(c(=O)n1C2)COC(=O)[C@]3(O)CC [SN-38, 7Ethyl-10-hydroxycamptothecin]
[5]; [17]
  IC50: 21.4 ng/mL (≈ 0.0544 µM)
[6]; QG56, MTT, 3 days, read-out: IC50
  IC50: 2.46 ng/mL (≈ 0.00627 µM)
[7]; 72 h, p388, MTT, 3 days, read-out: IC50
  IC50: 1.33 ng/mL (≈ 0.00339 µM)
[8]; [18]
  IC50: 1.43 ng/mL (≈ 0.00364 µM)
[9]; [19]
  IC50: 3.22 ng/mL (≈ 0.00821 µM)
[10]; MKN28, MTT, 3 days, read-out: IC50
  IC50: 61 ng/mL (≈ 0.155 µM)
[3]; SV40 DNA, 10 min, 37° C., read-out: Inhibition of topoisomerase I-induced relaxation of supercoiled DNA (IC50) (converted)
  IC50: 3.57 µM
[12]; [20]
  IC50: 21.7 ng/mL (≈ 0.0552 µM)
[13]; [21]
  IC50: 0.49 ng/mL (≈ 0.00125 µM)
[15]; mean of the 5 cell lines
  IC50: 9.63 ng/mL (≈ 0.0245 µM)
[16]; HOC21, MTT, 3 days, read-out: IC50
  IC50: 53.2 ng/mL (≈ 0.136 µM)

## CC[C@@]1(O)C(=O)OCc2c1cc1n(c2=O)Cc2c-1nc1cccc3c1c2C(N)CC3.Cl (single isomer, unassigned) [Example 2 (Isomer A)]
[1]; hydrochloride
  IC50: 3.38 ng/mL

## CC[C@@]1(O)C(=O)OCc2c1cc1n(c2=O)Cc2c-1nc1ccc(OC)c3c1c2CCC3N.Cl (single isomer, unassigned) [Example 7 (Isomer A)]
[1]; Mus musculus, P388, 72 h, read-out: IC50
  IC50: 11.4 ng/mL

## CCc1c2c(nc3ccc(OC(=O)N4CCC(N5CCCCC5)CC4)cc13)-c1cc3c(c(=O)n1C2)COC(=O)[C@]3(O)CC [CPT-11, irinotecan]
[5]; [17]
  IC50: 15100 ng/mL (≈ 25.7 µM)
[8]; [18]
  IC50: 1550 ng/mL (≈ 2.65 µM)
[9]; [19]
  IC50: 2850 ng/mL (≈ 4.86 µM)
[11]
  LD10: 198 mg/m^2
  LD50: 270 mg/m^2
[12]; [20]
  IC50: 8690 ng/mL (≈ 14.8 µM)
[13]; [21]
  IC50: 1200 ng/mL (≈ 2.04 µM)
[14]; total dose 25 mg/kg
  Death Nos.: 0/6
  Tumor cell anti-proliferative activity: 31.4%
[14]; total dose 50 mg/kg
  Death Nos.: 0/6
  Tumor cell anti-proliferative activity: 53.3%
[14]; total dose 100 mg/kg
  Death Nos.: 0/6
  Tumor cell anti-proliferative activity: 62.3%
[14]; total dose 200 mg/kg
  Death Nos.: 0/6
  Tumor cell anti-proliferative activity: 79.4%
[15]; mean of the 5 cell lines
  IC50: 5870 ng/mL (≈ 10 µM)

## CC[C@@]1(O)C(=O)OCc2c1cc1n(c2=O)Cc2c-1nc1ccc(OC)c3c1c2CCC3N.Cl (single isomer, unassigned) [Example 7 (Isomer B)]
[1]; hydrochloride
  IC50: 11.90 ng/mL
